Measured values taken from patent US12415786B2, “Substituted 2-heteroarylaminobenzenes and the salts thereof and their use as herbicidal agents” (Bayer Aktiengesellschaft, priority 2019, dated 2025).

Assays:
Assay type in all cases: in vivo
Stellaria media [1] = experiment: Herbicidal pre-emergence action (greenhouse pots), STEME; conditions: 1280 g/ha, visual scoring after about 3 weeks vs untreated controls
Description: (§1) In the examples and tables below, the following abbreviations are used: • Undesired Plants/Weeds: • ABUTH: Abutilon theophrasti • AGSTE: Agrostis tenuis • AMARE Amaranthus retroflexus • ECHCG: Echinochloa crus-galli • LOLRI: Lolium rigidum • MATIN: Matricaria inodora • POAAN: Poa annua • SETVI: Setaria viridis • STEME: Stellaria media A. Herbicidal Early Post-Emergence Action Seeds of mono- and dicotyledonous weed plants were placed in plastic pots in sandy loam soil (doubly sown with one species each of mono- or dicotyledonous weed plants per pot) and covered with soil. The compounds of the invention, formulated in the form of wettable powders (WP) or as emulsion concentrates (EC), were then applied onto the surface of the covering soil as aqueous suspension or emulsion with addition of 0.5% additive at a water application rate of 600 liters per hectare (converted). After the treatment, the pots were placed in a greenhouse and kept under good growth conditions for the test plants. After about 3 weeks, the effect of the preparations was scored visually in comparison with untreated controls as percentages. For example, 100% activity=the plants have died, 0% activity=like untreated control plants. Tables C1-C8 below show the effects of selected compounds of the general formula (I) according to Table 1 above on various harmful plants and an application rate corresponding to 1280 g/ha, which were obtained by the experimental procedure mentioned above.

Poa annua [2] = experiment: Herbicidal early post-emergence action (96-well microtiter plates), POAAN; conditions: 1900 g/ha, scored 9 to 12 days after treatment, 100% = plants have died, 0% = like untreated control plants
Description: (§2) In the examples and tables below, the following abbreviations are used: • Undesired Plants/Weeds: • ABUTH: Abutilon theophrasti • AGSTE: Agrostis tenuis • AMARE Amaranthus retroflexus • ECHCG: Echinochloa crus-galli • LOLRI: Lolium rigidum • MATIN: Matricaria inodora • POAAN: Poa annua • SETVI: Setaria viridis • STEME: Stellaria media A. Herbicidal Early Post-Emergence Action Seeds of monocotyledonous and dicotyledonous weed plants were placed in 96-well microtiter plates in quartz sand and grown in a climatized chamber under controlled growth conditions. 5 to 7 days after sowing, the test plants were treated at the cotyledon stage. The compounds according to the invention, formulated in the form of emulsion concentrates (EC), were applied with a water application rate of the equivalent of 2200 liters per hectare. After the test plants had been left to stand in the climatized chamber for 9 to 12 days under optimum growth conditions, the effect of the preparations was scored visually in comparison to untreated controls. Here, for example, 100% activity=the plants have died, 0% activity=like untreated control plants. Tables A1 to A2 below show the effects of selected compounds of the general formula (I) according to Table 1 above on various harmful plants and an application rate corresponding to 1900 g/ha, which were obtained by the experimental procedure mentioned above.

Agrostis tenuis = experiment: Herbicidal early post-emergence action (96-well microtiter plates), AGSTE; conditions: 1900 g/ha, scored 9 to 12 days after treatment, 100% = plants have died, 0% = like untreated control plants
Description: as §2

Amaranthus retroflexus [3] = experiment: Herbicidal post-emergence action (greenhouse pots), AMARE; conditions: 1280 g/ha, visual rating about 3 weeks after treatment vs untreated controls
Description: (§3) In the examples and tables below, the following abbreviations are used: • Undesired Plants/Weeds: • ABUTH: Abutilon theophrasti • AGSTE: Agrostis tenuis • AMARE Amaranthus retroflexus • ECHCG: Echinochloa crus-galli • LOLRI: Lolium rigidum • MATIN: Matricaria inodora • POAAN: Poa annua • SETVI: Setaria viridis • STEME: Stellaria media A. Herbicidal Early Post-Emergence Action Seeds of mono- and dicotyledonous weed plants were placed in plastic pots in sandy loam soil (doubly sown with in each case one species of mono- or dicotyledonous weed plants per pot), covered with soil and cultivated in a greenhouse under controlled growth conditions. 2 to 3 weeks after sowing, the test plants were treated at the one-leaf stage. The compounds of the invention, formulated in the form of wettable powders (WP) or as emulsion concentrates (EC), were applied onto the green parts of the plants as aqueous suspension or emulsion with addition of 0.5% additive at a water application rate of 600 liters per hectare (converted). After the test plants had been kept in the greenhouse under optimum growth conditions for about 3 weeks, the activity of the preparations was rated visually in comparison to untreated controls. For example, 100% activity=the plants have died, 0% activity=like untreated control plants. Tables B1-B8 below show the effects of selected compounds of the general formula (I) according to Table 1 above on various harmful plants and an application rate corresponding to 1280 g/ha, which were obtained by the experimental procedure mentioned above.

Poa annua [4] = experiment: Herbicidal pre-emergence action (greenhouse pots), POAAN; conditions: 1280 g/ha, visual scoring after about 3 weeks vs untreated controls
Description: as §1

Abutilon theophrasti = experiment: Herbicidal post-emergence action (greenhouse pots), ABUTH; conditions: 1280 g/ha, visual rating about 3 weeks after treatment vs untreated controls
Description: as §3

Echinochloa crus-galli [5] = experiment: Herbicidal post-emergence action (greenhouse pots), ECHCG; conditions: 1280 g/ha, rated after about 3 weeks, 100% = plants have died, 0% = like untreated control plants
Description: as §3

Matricaria inodora = experiment: Herbicidal pre-emergence action (greenhouse pots), MATIN; conditions: 1280 g/ha, visual scoring after about 3 weeks vs untreated controls
Description: as §1

Setaria viridis [6] = experiment: Herbicidal pre-emergence action (greenhouse pots), SETVI; conditions: 1280 g/ha, visual scoring after about 3 weeks vs untreated controls
Description: as §1

Amaranthus retroflexus [7] = experiment: Herbicidal pre-emergence action (greenhouse pots), AMARE; conditions: 1280 g/ha, visual scoring after about 3 weeks vs untreated controls
Description: as §1

Echinochloa crus-galli [8] = experiment: Herbicidal pre-emergence action (greenhouse pots), ECHCG; conditions: 1280 g/ha, visual scoring after about 3 weeks vs untreated controls
Description: as §1

Stellaria media [9] = experiment: Herbicidal post-emergence action (greenhouse pots), STEME; conditions: 1280 g/ha, visual rating about 3 weeks after treatment vs untreated controls
Description: as §3

Setaria viridis [10] = experiment: Herbicidal post-emergence action (greenhouse pots), SETVI; conditions: 1280 g/ha, rated after about 3 weeks, 100% = plants have died, 0% = like untreated control plants
Description: as §3

Poa annua [11] = experiment: Herbicidal post-emergence action (greenhouse pots), POAAN; conditions: 1280 g/ha, visual rating about 3 weeks after treatment vs untreated controls
Description: as §3

Structure (SMILES) | herbicidal activity STEME (Stellaria media [1]) [%] | POAAN (herbicidal activity, scored visually in comparison to untreated controls) (Poa annua [2]) [%] | AGSTE (herbicidal activity, scored visually in comparison to untreated controls) (Agrostis tenuis) [%] | herbicidal activity AMARE (Amaranthus retroflexus [3]) [%] | herbicidal activity POAAN (Poa annua [4]) [%] | herbicidal activity ABUTH (Abutilon theophrasti) [%] | ECHCG (herbicidal activity, rated visually in comparison to untreated controls) (Echinochloa crus-galli [5]) [%] | herbicidal activity MATIN (Matricaria inodora) [%] | herbicidal activity SETVI (Setaria viridis [6]) [%] | herbicidal activity AMARE (Amaranthus retroflexus [7]) [%] | herbicidal activity ECHCG (Echinochloa crus-galli [8]) [%] | herbicidal activity STEME (Stellaria media [9]) [%] | SETVI (herbicidal activity, rated visually in comparison to untreated controls) (Setaria viridis [10]) [%] | herbicidal activity POAAN (Poa annua [11]) [%]
N#Cc1cccc(Nc2ncc(F)cn2)c1Oc1cccc(F)c1 [Example 1-266] | 100 | 100 | 80 | 100 | 100 | 100 | 100 | 100 | 100 | 100 | 90 | 100 | – | –
N#Cc1cccc(Nc2ncc(F)cn2)c1Oc1ccc(Cl)cc1F [Example 1-275] | 100 | 100 | 80 | 100 | 100 | 90 | 90 | 90 | 100 | 100 | 90 | 100 | 90 | –
N#Cc1cccc(Nc2ncc(Cl)cn2)c1Oc1ccc(F)cc1F [Example 1-289] | 100 | 80 | 80 | 100 | 100 | 90 | 100 | 100 | 100 | 100 | – | 100 | 90 | –
N#Cc1cccc(Nc2ncc(F)cn2)c1Oc1ccc(F)cc1F [Example 1-270] | 100 | 80 | 80 | 100 | 100 | 90 | 90 | 100 | 100 | 100 | 100 | 100 | 90 | –
N#Cc1cccc(Nc2ncccn2)c1Oc1ccc(C(F)(F)F)cc1 [Example 1-260] | 100 | 100 | 100 | 100 | 90 | – | – | 90 | 100 | 100 | 90 | 90 | – | –
O=[N+]([O-])c1cccc(Nc2ncc(Cl)cn2)c1Oc1ccc(F)cc1 [Example 1-350] | – | 100 | 80 | 100 | 100 | – | – | 100 | – | 100 | – | – | – | 100
N#Cc1cccc(Nc2ncc(Cl)cn2)c1Oc1ccc(C(F)(F)F)cc1 [Example 1-298] | 100 | 80 | 80 | 100 | 100 | 90 | – | 90 | 100 | 100 | – | 100 | 90 | 90
N#Cc1cccc(Nc2ncc(Cl)cn2)c1Oc1ccc(Cl)cc1 [Example 1-288] | 100 | 80 | 80 | 100 | 100 | 90 | 100 | – | 100 | 100 | 90 | – | 90 | 100
Cc1cccc(Nc2ncc(Cl)cn2)c1Oc1ccc(F)cc1 [Example 1-239] | – | 100 | 80 | 100 | 100 | – | – | 100 | – | – | – | 100 | – | 100
N#Cc1cccc(Nc2ncccn2)c1Oc1cccc(F)c1 [Example 1-247] | 100 | – | 80 | 100 | 100 | – | – | – | 100 | 100 | 90 | – | – | –
CC(=O)N(C)c1cccc(Nc2ncc(Cl)cn2)c1Oc1ccc(F)cc1 [Example 1-369] | 100 | 80 | 80 | 100 | – | – | – | – | 100 | 100 | – | – | – | 100
Fc1ccc(Oc2ccccc2Nc2ncc(Cl)cn2)cc1 [Example 1-337] | – | 100 | 100 | 90 | 100 | 90 | 90 | – | – | 90 | – | – | – | –
Fc1ccc(Oc2c(I)cccc2Nc2ncc(Cl)cn2)cc1 [Example 1-372] | – | 100 | 100 | – | – | – | – | – | 100 | 100 | – | 90 | – | 100
